# Measurements published in BindingDB's records for doi:10.7270/Q2N014XN (Srmlsc, 2007).
# Target: T1, Diphosphomevalonate decarboxylase (Streptococcus pneumoniae serotype 2 (strain D39 / NCTC 7466), UniProt A0A0H2ZN59)
# T1 sequence (A0A0H2ZN59 whole entry): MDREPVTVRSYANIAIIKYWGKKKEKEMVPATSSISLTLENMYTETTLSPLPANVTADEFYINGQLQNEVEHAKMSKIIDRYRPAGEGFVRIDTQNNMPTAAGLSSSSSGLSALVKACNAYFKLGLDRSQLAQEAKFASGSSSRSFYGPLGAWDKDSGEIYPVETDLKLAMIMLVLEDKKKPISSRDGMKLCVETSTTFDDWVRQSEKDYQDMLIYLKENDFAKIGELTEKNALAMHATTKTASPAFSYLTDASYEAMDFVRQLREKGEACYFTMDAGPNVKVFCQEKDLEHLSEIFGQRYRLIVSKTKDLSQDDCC
# Assay: S. pneumoniae DPM-DC inhibitor potency, dose response, biochemical, PK/LDH-coupled NADH fluorescence, hexokinase coupling counter-screen (AID 550)
# Settings: not given
row,SMILES,IC50
1,"COc1cccc(C(=O)OCn2nnc3ccccc3c2=O)c1 [(4-oxidanylidene-1,2,3-benzotriazin-3-yl)methyl 3-methoxybenzoate]",> 10000 µM
2,"CC(=NCc1ccco1)c1c(C)[nH]n(-c2nc3ccccc3s2)c1=O [(4Z)-2-(1,3-benzothiazol-2-yl)-4-[1-(furan-2-ylmethylamino)ethylidene]-5-methyl-pyrazol-3-one]",> 10000 µM
3,"Cc1cc(N2CCOCC2)c2c(N)c(Br)cc(C)c2n1 [(6-bromo-2,8-dimethyl-4-morpholino-5-quinolyl)amine]",> 10000 µM
4,"CCc1cc(C(Cc2ccc3ccccc3n2)N=O)c(O)cc1O (stereo not drawn) [(6Z)-4-ethyl-3-hydroxy-6-[1-(hydroxyamino)-2-(2-quinolinyl)ethylidene]-1-cyclohexa-2,4-dienone]",> 10000 µM
5,N#C/C(=C\C1CC=CCC1)c1nc2ccccc2[nH]1 (stereo not drawn) [(E)-2-(1H-benzimidazol-2-yl)-3-cyclohex-3-en-1-ylprop-2-enenitrile],> 10000 µM
6,"CCCn1c(=O)c2ccccc2n2c(SCC(=O)C(C#N)C(C)=N)nnc12 (stereo not drawn) [(E)-3-amino-2-[1-oxo-2-[(5-oxo-4-propyl-[1,2,4]triazolo[4,3-a]quinazolin-1-yl)thio]ethyl]-2-butenenitrile]",> 10000 µM
7,CC(O)COc1ccc(C(N=O)c2ccccc2)cc1 (stereo not drawn) [(E)-[4-(2-hydroxypropoxy)phenyl](phenyl)methanone oxime],> 10000 µM
8,"COc1ccccc1N1CCN(C(=O)CSc2nnc(NC(=O)c3ccco3)s2)CC1 [Furan-2-carboxylic acid (5-{2-[4-(2-methoxy-phenyl)-piperazin-1-yl]-2-oxo-ethylsulfanyl}-[1,3,4]thiadiazol-2-yl)-amide]",262 µM
9,"CCOc1cc(NC(=O)c2ccco2)c(OCC)cc1NC(=O)CCc1ccc(OC)cc1 [Furan-2-carboxylic acid {2,5-diethoxy-4-[3-(4-methoxy-phenyl)-propionylamino]-phenyl}-amide]",> 10000 µM
10,COc1ccc2c(c1)C1(C)CC(C)(C)N2C(=O)N1c1ccccc1 (stereo not drawn) [MLS000027457],182 µM
11,CCCC(=O)Nc1ccc(N2CCN(C(=O)CCC)CC2)cc1 [MLS000034431],> 10000 µM
12,O=C(c1ccc(F)cc1)N1CCC(N2CCCCCC2)CC1 [MLS000037563],> 10000 µM
13,O=C(c1ccccc1F)N(Cc1ccccc1)C1CCS(=O)(=O)C1 (stereo not drawn) [MLS000039394],> 10000 µM
14,COC(=O)c1[nH]c2cccc(OC)c2c1NC(=O)CCN1CCN(c2ccccc2OC)CC1 [MLS000040529],27.4 µM
15,O=C(CSc1ncnc2c1cnn2-c1ccccc1)Nc1ccc2c(c1)OCO2 [MLS000041214],> 10000 µM
16,Cc1ccc2cc3c(NC(=O)c4ccco4)nn(C)c3nc2c1 [MLS000041273],45.7 µM
17,CCCn1c(C)nc2c(c1=O)c1nc3ccccc3nc1n2-c1ccc2c(c1)OCCO2 [MLS000042026],> 10000 µM
18,CCN(CC)S(=O)(=O)c1ccc(NC(=O)c2cccc3c2C(=O)N(CCOC)C3)cc1 [MLS000045293],50.5 µM
19,O=C(NCC1CCCO1)c1coc2nc3ccccc3nc12 (stereo not drawn) [MLS000046703],30.6 µM
20,CC(NC(=O)c1cccc(N2CCCC2=O)c1)c1ccc2c(c1)OCCO2 (stereo not drawn) [MLS000046772],> 10000 µM
21,Cc1c(NC(=O)CN2c3cccc4cccc(c34)S2(=O)=O)c(=O)n(-c2ccccc2)n1C [MLS000050268],34.2 µM
22,O=C(Nc1ccc2nc(-c3cccs3)c(-c3cccs3)nc2c1)N1CCOCC1 [MLS000050299],25.8 µM
23,NC(=O)c1ccsc1NC(=O)c1nc(-c2ccccc2)n(-c2ccccc2)n1 [MLS000054020],55.9 µM
24,Cc1coc2cc3oc(=O)c4c(c3cc12)CCC4 [MLS000054228],52.9 µM
25,CC(C)CNC(=O)COc1ccc2c3c(c(=O)oc2c1)CCC3 [MLS000054673],65.4 µM
26,CCCN(CC(=O)c1cc(C)n(C)c1C)S(=O)(=O)c1cccc(C(F)(F)F)c1 [MLS000055141],> 10000 µM
27,O=C(COc1cnc2ccccc2n1)NCCC1=CCCCC1 [MLS000056304],188 µM
28,O=C(CSc1nnc2ccccn12)Nc1ccccc1C(=O)NC1CC1 [MLS000056825],> 10000 µM

row,SMILES,IC50
1,Oc1nc(-c2ccncc2)nc2ccccc12 [MLS000056988],> 10000 µM
2,O=S(=O)(Nc1cccc2ncccc12)c1cccs1 [MLS000057468],> 10000 µM
3,Cc1ccc(-n2c(SCC(=O)NCc3ccco3)nnc2-c2cccnc2)c(C)c1 [MLS000058402],> 10000 µM
4,COc1cc(NC(=O)c2ccc3c(c2)OCO3)c2ncccc2c1 [MLS000061736],52 µM
5,CC(C)(CO)NC(=O)C(c1ccccc1)c1ccccc1 [MLS000062471],> 10000 µM
6,O=C(Nc1ccc(-c2nc3ncccc3o2)cc1)c1ccco1 [MLS000062759],34.9 µM
7,CCc1ccc(CCC(=O)Nc2ccc(C)c(C)c2)o1 [MLS000064736],> 10000 µM
8,C=CCNc1nc(N2CCCC2)nc2ccccc12 [MLS000066749],66.6 µM
9,CC(=O)Nc1cccc(NC(=O)CSc2nnnn2Cc2ccccc2)c1 [MLS000068005],> 10000 µM
10,CCC(=O)Nc1cccc(NC(=O)CSc2nnnn2Cc2ccccc2)c1 [MLS000068150],> 10000 µM
11,COc1cc(NC(=O)c2ccco2)c(OC)cc1NC(=O)CCC(=O)Nc1cc(C)ccc1C [MLS000072545],> 10000 µM
12,CCn1c(SCC(=O)Nc2cccc(C(C)=O)c2)nnc1C(C)C [MLS000073205],> 10000 µM
13,COc1ccc(C2C3=C(OC(C)=O)c4ccccc4C3=Nc3c2c(=O)n(C)c(=O)n3C)cc1 (stereo not drawn) [MLS000073247],> 10000 µM
14,COc1cc(C(=O)Nc2ccc3c(c2)OCO3)ccc1-n1cnnn1 [MLS000073665],> 10000 µM
15,O=C(Nc1ccc(N2CCCCC2)cc1)c1cccnc1 [MLS000074324],> 10000 µM
16,Cc1cc(N2CCN(C(=O)c3ccco3)CC2)n2nc(-c3cccc(Cl)c3)cc2n1 [MLS000076302],> 10000 µM
17,COc1ccc(-n2c(NC(=O)c3ccco3)c(C#N)c3nc4ccccc4nc32)cc1 [MLS000079925],16.9 µM
18,CCCN1C(=O)C(NC(C)=O)c2cc(OC)ccc21 (stereo not drawn) [MLS000080624],> 10000 µM
19,CCOC(=O)Cc1csc(-n2sc3ccccc3c2=O)n1 [MLS000082162],7.58 µM
20,Cc1cccn2c(=O)c3cc(C#N)/c(=N\C(=O)c4ccc5c(c4)OCO5)n(CC(C)C)c3nc12 [MLS000082296],118 µM
21,Cn1c(=O)[nH]c(=O)c2c1nc(NC1CCCCC1)n2Cc1ccccc1 [MLS000083828],> 10000 µM
22,CN(c1nc2ccccc2n2c(-c3ccco3)nnc12)S(=O)(=O)c1ccccc1 [MLS000083900],35.8 µM
23,CC(C)c1nc2oc3c(NCc4ccccn4)ncnc3c2c2c1COC(C)(C)C2 [MLS000084035],813 µM
24,O=P1(NC2CCCC2)COc2ccccc2OC1 [MLS000084153],> 10000 µM
25,Cc1nc2oc3c(NCC4CCCO4)ncnc3c2c2c1COC(C)(C)C2 (stereo not drawn) [MLS000084527],22.3 µM
26,Cc1nc2oc3c(NCc4ccccn4)ncnc3c2c2c1COC(C)(C)C2 [MLS000084529],> 10000 µM
27,Cc1cccc(C)c1NC(=O)C(c1ccccc1)N1CCN(C(=O)c2ccco2)CC1 (stereo not drawn) [MLS000086418],> 10000 µM

# Same assay, conditions: inactive by the depositor's call
row,SMILES,IC50
1,"C/C(C=Nn1cnnc1)=C\c1ccco1 [(E)-3-(2-furanyl)-2-methyl-N-(1,2,4-triazol-4-yl)-2-propen-1-imine]",125 µM
2,COC(=O)Sc1nnc(-c2ccc(Br)cc2)o1 [MLS000084961],16.4 µM
3,Nc1nc2c(s1)CCc1c-2cnn1-c1ccccc1 [MLS000085948],9.51 µM
